# Values quoted from earlier work in patent US20200093858A1, “VAGINAL BIOADHESIVE BORIC ACID FORMULATION AND ITS PREPARATION METHOD” (Halo Science LLC, priority 2015, published 2020).
# Where two headings read alike, the source gives them in different places.
# How the values were obtained:
# [1] = system: recurrent bacterial vaginosis; details: for cure rate / cumulative cure rate: boric acid in addition to nitroimidazole
# common fungi or bacteria = details: in urine
# [2] = 600 mg per day, therapeutic course of two weeks
# C. albicans = details: 2×10^6 per mL of C. albicans, in vitro
# T. glabrata = details: refractory T. glabrata vaginitis
smiles,measurement,setting,value
OB(O)O [boric acid],adverse reactions,[1]; in vivo,No adverse reactions were observed
same,cure rate,[1]; week 7,88%
same,cure rate,[1]; week 12,92%
same,cumulative cure rate,[1]; week 16,78%
same,cumulative cure rate,[1]; week 28,65%
same,cure rate,vulvovaginal candidiasis; boric acid treatment of vulvovaginal candidiasis,> 90%
same,efficacy compared with conazoles,vulvovaginal candidiasis; treatment for 14 days,equivalent to conazoles
same,boric acid concentration that could suppress almost all common fungi or bacteria,common fungi or bacteria,10 to 20 mg/mL
same,adverse reactions,[2],did not cause adverse reactions
same,boric acid concentration that inhibited proliferation of C. albicans,C. albicans,4%
same,Clinical efficacy,T. glabrata,≤ 81%
same,mycological eradication rate,T. glabrata,≤ 77%
